Source: ChEMBL document CHEMBL4052772, “Design, synthesis and biological evaluation of novel 4-phenoxyquinoline derivatives containing 3-oxo-3,4-dihydroquinoxaline moiety as c-Met kinase inhibitors” (Bioorg Med Chem, 2017)

Key:
NCI-H460 = assay: Antiproliferative activity against human H460 cells after 72 hrs by MTT assay; details: NCI-H460, 72 h
U-87 MG = assay: Antiproliferative activity against human U87MG cells after 72 hrs by MTT assay
HT-29 = assay: cells; details: Homo sapiens, HT-29, 72 h
A549 = assay: cells; details: Homo sapiens, A549, 72 h
Description: Antiproliferative activity against human A549 cells after 72 hrs by MTT assay

MKN-45 = assay: cells; details: Homo sapiens, MKN-45, 72 h
Description: Antiproliferative activity against human MKN45 cells after 72 hrs by MTT assay

[1] = molecular target: Hepatocyte growth factor receptor (Homo sapiens, UniProt P08581); assay: Inhibition of c-Met (unknown origin) using poly (Glu, Tyr) 4:1 as substrate after 30 mins by HTRF assay
Sequence of Hepatocyte growth factor receptor (P08581 whole entry): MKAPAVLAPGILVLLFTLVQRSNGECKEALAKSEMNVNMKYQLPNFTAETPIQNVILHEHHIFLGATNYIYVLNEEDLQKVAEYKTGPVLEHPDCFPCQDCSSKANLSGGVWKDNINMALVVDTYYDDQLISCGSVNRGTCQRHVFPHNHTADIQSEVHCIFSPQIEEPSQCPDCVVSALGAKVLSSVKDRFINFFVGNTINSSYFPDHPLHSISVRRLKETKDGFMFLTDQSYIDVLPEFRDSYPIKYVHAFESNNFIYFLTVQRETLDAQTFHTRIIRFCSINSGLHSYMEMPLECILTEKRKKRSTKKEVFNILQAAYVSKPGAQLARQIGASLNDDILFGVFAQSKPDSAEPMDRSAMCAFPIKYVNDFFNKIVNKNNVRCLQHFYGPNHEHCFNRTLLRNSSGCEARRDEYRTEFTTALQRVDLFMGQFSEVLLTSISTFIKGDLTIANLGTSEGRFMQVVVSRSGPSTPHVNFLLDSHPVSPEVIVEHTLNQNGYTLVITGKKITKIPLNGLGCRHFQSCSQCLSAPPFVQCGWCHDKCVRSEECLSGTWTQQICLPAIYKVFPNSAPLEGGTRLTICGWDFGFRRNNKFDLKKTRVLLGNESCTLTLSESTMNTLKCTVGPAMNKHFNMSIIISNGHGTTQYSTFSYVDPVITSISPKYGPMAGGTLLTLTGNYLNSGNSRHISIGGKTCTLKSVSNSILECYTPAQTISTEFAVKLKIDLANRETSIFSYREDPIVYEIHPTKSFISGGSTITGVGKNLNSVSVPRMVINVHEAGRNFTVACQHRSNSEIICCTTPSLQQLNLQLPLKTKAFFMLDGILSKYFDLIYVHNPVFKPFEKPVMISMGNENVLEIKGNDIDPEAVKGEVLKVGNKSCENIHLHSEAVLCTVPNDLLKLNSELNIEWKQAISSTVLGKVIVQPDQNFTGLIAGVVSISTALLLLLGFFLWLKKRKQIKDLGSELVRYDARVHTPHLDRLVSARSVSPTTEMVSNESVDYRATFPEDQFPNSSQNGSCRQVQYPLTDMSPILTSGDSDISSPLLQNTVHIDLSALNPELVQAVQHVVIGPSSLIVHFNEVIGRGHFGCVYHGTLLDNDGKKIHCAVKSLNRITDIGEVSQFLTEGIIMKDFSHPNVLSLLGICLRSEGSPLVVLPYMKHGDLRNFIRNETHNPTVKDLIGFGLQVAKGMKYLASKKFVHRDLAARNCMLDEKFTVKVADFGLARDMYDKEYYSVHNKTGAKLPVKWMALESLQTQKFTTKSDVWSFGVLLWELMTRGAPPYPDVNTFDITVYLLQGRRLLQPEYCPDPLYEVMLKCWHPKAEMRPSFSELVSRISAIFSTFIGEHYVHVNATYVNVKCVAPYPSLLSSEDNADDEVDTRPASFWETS

[2] = molecular target: Mast/stem cell growth factor receptor Kit (Homo sapiens, UniProt P10721); assay: Inhibition of c-Kit (unknown origin) using poly (Glu, Tyr) 4:1 as substrate after 30 mins by HTRF assay
Sequence of Mast/stem cell growth factor receptor Kit (P10721 whole entry): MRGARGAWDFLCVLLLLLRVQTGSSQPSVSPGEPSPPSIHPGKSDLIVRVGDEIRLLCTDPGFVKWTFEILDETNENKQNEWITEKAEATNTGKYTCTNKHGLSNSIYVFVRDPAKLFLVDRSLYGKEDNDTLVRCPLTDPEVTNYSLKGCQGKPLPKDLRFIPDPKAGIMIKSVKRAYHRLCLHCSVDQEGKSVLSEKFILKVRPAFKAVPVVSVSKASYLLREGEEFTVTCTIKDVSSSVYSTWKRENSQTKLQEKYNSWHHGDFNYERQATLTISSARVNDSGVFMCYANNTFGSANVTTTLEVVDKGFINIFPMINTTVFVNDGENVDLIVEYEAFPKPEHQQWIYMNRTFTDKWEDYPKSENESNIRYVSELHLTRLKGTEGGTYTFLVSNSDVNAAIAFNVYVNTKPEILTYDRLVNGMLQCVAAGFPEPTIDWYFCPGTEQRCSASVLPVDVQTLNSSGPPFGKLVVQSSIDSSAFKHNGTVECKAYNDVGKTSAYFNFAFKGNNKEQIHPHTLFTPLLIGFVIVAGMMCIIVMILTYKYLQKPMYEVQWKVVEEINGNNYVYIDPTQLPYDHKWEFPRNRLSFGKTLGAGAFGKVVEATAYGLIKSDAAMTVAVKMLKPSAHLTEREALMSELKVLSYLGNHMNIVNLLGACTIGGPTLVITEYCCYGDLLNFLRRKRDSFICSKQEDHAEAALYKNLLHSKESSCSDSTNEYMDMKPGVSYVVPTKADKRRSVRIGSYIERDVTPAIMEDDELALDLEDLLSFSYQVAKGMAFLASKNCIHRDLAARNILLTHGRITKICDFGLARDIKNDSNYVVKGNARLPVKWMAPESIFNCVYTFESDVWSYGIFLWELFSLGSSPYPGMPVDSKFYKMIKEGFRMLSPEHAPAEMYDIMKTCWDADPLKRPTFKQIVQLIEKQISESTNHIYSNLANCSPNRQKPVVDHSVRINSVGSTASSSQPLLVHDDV

[3] = molecular target: Platelet-derived growth factor receptor alpha (Homo sapiens, UniProt P16234); assay: Inhibition of PDGFRalpha (unknown origin) using poly (Glu, Tyr) 4:1 as substrate after 30 mins by HTRF assay
[4] = molecular target: Macrophage-stimulating protein receptor (Homo sapiens, UniProt Q04912); assay: Inhibition of Ron (unknown origin) using poly (Glu, Tyr) 4:1 as substrate after 30 mins by HTRF assay
Sequence of Macrophage-stimulating protein receptor (Q04912 25-304 limits assumed): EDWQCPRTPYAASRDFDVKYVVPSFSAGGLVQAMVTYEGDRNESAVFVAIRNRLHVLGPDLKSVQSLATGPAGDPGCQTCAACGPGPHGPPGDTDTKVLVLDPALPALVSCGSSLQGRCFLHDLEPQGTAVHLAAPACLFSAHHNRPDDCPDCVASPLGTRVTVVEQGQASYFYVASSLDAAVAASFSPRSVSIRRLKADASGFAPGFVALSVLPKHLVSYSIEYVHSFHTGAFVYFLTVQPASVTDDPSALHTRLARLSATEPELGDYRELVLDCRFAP
Sequence of Macrophage-stimulating protein receptor (Q04912 310-1400 limits assumed): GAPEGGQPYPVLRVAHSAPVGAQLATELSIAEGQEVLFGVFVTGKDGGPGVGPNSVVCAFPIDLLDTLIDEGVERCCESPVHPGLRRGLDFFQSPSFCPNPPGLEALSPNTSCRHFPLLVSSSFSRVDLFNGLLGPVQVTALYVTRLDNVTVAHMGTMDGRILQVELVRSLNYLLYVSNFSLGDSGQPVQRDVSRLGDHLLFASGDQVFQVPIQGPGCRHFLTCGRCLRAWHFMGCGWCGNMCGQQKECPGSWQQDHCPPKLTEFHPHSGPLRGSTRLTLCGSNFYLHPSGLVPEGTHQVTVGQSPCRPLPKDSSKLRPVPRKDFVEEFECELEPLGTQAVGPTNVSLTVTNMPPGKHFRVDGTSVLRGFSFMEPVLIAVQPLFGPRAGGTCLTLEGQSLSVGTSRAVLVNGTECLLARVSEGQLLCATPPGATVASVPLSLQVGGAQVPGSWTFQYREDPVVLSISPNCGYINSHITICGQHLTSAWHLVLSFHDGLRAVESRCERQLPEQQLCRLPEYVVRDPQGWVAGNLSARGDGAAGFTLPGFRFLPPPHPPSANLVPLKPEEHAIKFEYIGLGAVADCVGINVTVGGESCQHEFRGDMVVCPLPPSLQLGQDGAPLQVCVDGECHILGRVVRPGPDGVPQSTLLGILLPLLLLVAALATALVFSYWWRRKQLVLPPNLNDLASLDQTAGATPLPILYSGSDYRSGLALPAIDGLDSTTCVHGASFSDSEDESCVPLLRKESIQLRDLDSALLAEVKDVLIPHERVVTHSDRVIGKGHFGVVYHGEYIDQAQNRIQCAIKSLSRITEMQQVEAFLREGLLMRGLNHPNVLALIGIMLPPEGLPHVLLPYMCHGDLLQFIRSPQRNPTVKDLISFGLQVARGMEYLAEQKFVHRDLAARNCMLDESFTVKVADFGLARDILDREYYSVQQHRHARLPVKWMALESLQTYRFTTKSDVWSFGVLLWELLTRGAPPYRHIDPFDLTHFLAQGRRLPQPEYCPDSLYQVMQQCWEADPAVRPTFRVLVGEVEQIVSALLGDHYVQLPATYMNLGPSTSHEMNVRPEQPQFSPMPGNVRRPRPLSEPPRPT

[5] = molecular target: Vascular endothelial growth factor receptor 2 (Homo sapiens, UniProt P35968); assay: Inhibition of VEGFR2 (unknown origin) using poly (Glu, Tyr) 4:1 as substrate after 30 mins by HTRF assay
[6] = molecular target: T1, Receptor-type tyrosine-protein kinase FLT3 (Homo sapiens, UniProt P36888); assay: Inhibition of Flt3 (unknown origin) using poly (Glu, Tyr) 4:1 as substrate after 30 mins by HTRF assay
T1 sequence (P36888 whole entry): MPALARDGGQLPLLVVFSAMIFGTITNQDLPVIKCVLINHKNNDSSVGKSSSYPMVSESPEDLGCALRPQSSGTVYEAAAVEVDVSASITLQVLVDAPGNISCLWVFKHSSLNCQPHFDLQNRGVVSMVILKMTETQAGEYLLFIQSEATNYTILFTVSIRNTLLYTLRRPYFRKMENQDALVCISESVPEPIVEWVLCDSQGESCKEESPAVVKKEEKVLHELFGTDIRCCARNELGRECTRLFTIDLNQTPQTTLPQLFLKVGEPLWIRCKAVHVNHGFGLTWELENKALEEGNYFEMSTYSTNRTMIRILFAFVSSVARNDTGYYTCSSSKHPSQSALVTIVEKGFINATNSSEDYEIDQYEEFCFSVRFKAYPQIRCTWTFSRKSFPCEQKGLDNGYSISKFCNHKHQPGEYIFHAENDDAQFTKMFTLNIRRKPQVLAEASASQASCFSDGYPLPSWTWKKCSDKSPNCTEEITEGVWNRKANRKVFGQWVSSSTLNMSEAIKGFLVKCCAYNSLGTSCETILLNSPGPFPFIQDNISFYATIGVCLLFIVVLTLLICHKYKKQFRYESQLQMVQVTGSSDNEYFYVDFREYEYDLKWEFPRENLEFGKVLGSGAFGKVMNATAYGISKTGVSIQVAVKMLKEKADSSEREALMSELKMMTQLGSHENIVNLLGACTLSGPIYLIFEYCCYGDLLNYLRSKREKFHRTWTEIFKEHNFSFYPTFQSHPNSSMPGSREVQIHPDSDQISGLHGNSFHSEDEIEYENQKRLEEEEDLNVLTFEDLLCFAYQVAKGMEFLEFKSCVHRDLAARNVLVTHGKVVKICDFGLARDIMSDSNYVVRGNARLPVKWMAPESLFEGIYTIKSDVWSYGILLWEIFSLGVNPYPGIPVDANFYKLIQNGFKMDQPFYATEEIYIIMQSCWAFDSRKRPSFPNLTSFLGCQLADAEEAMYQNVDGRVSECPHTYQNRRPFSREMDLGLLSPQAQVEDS

[7] = molecular target: Epidermal growth factor receptor (Homo sapiens, UniProt P00533); assay: Inhibition of EGFR (unknown origin) using poly (Glu, Tyr) 4:1 as substrate after 30 mins by HTRF assay
Sequence of Epidermal growth factor receptor (P00533 whole entry): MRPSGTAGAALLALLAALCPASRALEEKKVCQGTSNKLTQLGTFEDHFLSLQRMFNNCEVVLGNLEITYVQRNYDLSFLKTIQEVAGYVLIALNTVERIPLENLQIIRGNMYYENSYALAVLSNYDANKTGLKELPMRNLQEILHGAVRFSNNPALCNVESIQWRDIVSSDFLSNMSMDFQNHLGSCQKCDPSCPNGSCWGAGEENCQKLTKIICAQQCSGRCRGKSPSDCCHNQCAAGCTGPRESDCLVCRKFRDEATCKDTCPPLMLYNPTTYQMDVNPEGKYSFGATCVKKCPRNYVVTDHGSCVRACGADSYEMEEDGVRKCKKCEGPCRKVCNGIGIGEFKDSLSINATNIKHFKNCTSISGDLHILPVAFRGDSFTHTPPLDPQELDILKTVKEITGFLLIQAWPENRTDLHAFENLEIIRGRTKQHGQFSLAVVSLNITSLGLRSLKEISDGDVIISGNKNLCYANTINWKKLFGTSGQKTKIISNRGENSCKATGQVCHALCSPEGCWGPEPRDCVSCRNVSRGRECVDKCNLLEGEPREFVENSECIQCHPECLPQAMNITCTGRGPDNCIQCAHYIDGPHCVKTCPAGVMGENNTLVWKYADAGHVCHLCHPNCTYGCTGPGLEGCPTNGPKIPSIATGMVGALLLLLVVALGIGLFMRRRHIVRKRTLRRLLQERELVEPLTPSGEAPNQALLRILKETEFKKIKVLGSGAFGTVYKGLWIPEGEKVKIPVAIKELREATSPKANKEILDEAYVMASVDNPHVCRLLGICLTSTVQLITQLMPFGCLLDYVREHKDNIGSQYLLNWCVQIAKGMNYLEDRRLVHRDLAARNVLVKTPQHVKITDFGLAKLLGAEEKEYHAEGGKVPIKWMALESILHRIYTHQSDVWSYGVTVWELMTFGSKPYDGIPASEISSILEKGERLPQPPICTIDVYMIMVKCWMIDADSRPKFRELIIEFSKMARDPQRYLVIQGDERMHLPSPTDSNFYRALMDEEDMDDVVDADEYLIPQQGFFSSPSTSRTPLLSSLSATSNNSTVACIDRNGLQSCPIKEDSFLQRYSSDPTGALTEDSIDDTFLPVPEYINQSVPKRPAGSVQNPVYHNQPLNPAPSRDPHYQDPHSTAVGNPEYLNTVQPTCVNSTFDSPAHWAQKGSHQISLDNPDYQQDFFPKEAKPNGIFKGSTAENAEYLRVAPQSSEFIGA

[8] = molecular target: ALK tyrosine kinase receptor (Homo sapiens, UniProt Q9UM73); assay: Inhibition of ALK (unknown origin) using poly (Glu, Tyr) 4:1 as substrate after 30 mins by HTRF assay

| SMILES | IC50 (NCI-H460) [nM] | IC50 (U-87 MG) [nM] | IC50 (HT-29) [nM] | IC50 (A549) [nM] | IC50 (MKN-45) [nM] | IC50 [1] [nM] | IC50 [2] [nM] | IC50 [3] [nM] | IC50 [4] [nM] | IC50 [5] [nM] | IC50 [6] [nM] | IC50 [7] [nM] | IC50 [8] [nM] |
| --- | --- | --- | --- | --- | --- | --- | --- | --- | --- | --- | --- | --- | --- |
| COc1cc2c(Oc3ccc(NC(=O)c4nc5ccccc5n(-c5ccc(Cl)cc5Cl)c4=O)cc3F)ccnc2cc1OCCCN1CCOCC1 | 640 | 5040 | 590 | 170 | 75 | – | – | – | – | – | – | – | – |
| COc1cc2c(Oc3ccc(NC(=O)c4nc5ccccc5n(-c5ccccc5Cl)c4=O)cc3F)ccnc2cc1OCCCN1CCOCC1 | 140 | 1500 | 150 | 50 | 25 | 3.23 | – | – | – | – | – | – | – |
| COc1cc2c(Oc3ccc(NC(=O)c4nc5ccccc5n(-c5cccc(F)c5)c4=O)cc3F)ccnc2cc1OCCCN1CCOCC1 | 400 | 1850 | 200 | 310 | 390 | – | – | – | – | – | – | – | – |
| COc1cc2c(Oc3ccc(NC(=O)c4nc5ccccc5n(-c5cccc(Cl)c5)c4=O)cc3F)ccnc2cc1OCCCN1CCOCC1 | 530 | 980 | 330 | 240 | 340 | – | – | – | – | – | – | – | – |
| COc1cc2c(Oc3ccc(NC(=O)c4nc5ccccc5n(-c5ccccc5C(F)(F)F)c4=O)cc3F)ccnc2cc1OCCCN1CCOCC1 | 280 | 1780 | 190 | 220 | 560 | – | – | – | – | – | – | – | – |
| COc1cc2c(Oc3ccc(NC(=O)c4nc5ccccc5n(-c5ccc(OC(F)(F)F)cc5)c4=O)cc3F)ccnc2cc1OCCCN1CCOCC1 | 290 | 1220 | 200 | 330 | 260 | – | – | – | – | – | – | – | – |
| COc1ccc(-n2c(=O)c(C(=O)Nc3ccc(Oc4ccnc5cc(OCCCN6CCOCC6)c(OC)cc45)c(F)c3)nc3ccccc32)cc1 | 1850 | > 32000 | 690 | 1720 | 660 | – | – | – | – | – | – | – | – |
| COc1cc2c(Oc3ccc(NC(=O)c4nc5ccccc5n(-c5ccc(F)cc5)c4=O)cc3F)ccnc2cc1OCCCN1CCN(C)CC1 | – | – | – | – | – | 0.9 | 2.45 | 19.1 | 82.6 | 152 | 269 | 981 | 2840 |
| COc1cc2c(Oc3ccc(NC(=O)c4nc5ccccc5n(-c5ccc(F)cc5)c4=O)cc3F)ccnc2cc1OCCCN1CCCCC1 | – | – | – | – | – | 8.03 | – | – | – | – | – | – | – |
| COc1cc2c(Oc3ccc(NC(=O)c4nc5ccccc5n(-c5ccc(Cl)cc5)c4=O)cc3F)ccnc2cc1OCCCN1CCOCC1 | 280 | 1060 | 160 | 42 | 29 | 6.76 | – | – | – | – | – | – | – |
| COc1ccc(-n2c(=O)c(C(=O)Nc3ccc(Oc4ccnc5cc(OCCCN6CCOCC6)c(OC)cc45)c(F)c3)nc3ccccc32)c(OC)c1 | 2050 | 16200 | 1290 | 5110 | 860 | – | – | – | – | – | – | – | – |
| COc1cc2c(Oc3ccc(NC(=O)c4nc5ccccc5n(-c5ccc(C)cc5)c4=O)cc3F)ccnc2cc1OCCCN1CCOCC1 | 1120 | 4170 | 1030 | 2160 | 580 | – | – | – | – | – | – | – | – |
| COc1cc2c(Oc3ccc(NC(=O)c4nc5ccccc5n(-c5ccccc5F)c4=O)cc3F)ccnc2cc1OCCCN1CCC(C)CC1 | – | – | – | – | – | 13.1 | – | – | – | – | – | – | – |
| COc1cc2c(Oc3ccc(NC(=O)c4nc5ccccc5n(-c5ccccc5F)c4=O)cc3F)ccnc2cc1OCCCN1CCOCC1 | 230 | 650 | 170 | 33 | 29 | 4.52 | – | – | – | – | – | – | – |
| COc1cc2c(Oc3ccc(NC(=O)c4nc5ccccc5n(-c5ccc(F)cc5)c4=O)cc3F)ccnc2cc1OCCCN1CCOCC1 | 140 | 810 | 110 | 30 | 26 | 2.35 | – | – | – | – | – | – | – |
| COc1cc2c(Oc3ccc(NC(=O)c4nc5ccccc5n(-c5ccccc5)c4=O)cc3F)ccnc2cc1OCCCN1CCOCC1 | 1040 | 1720 | 200 | 410 | 82 | – | – | – | – | – | – | – | – |
| COc1cc2c(Oc3ccc(NC(=O)c4nc5ccccc5n(-c5ccc(F)cc5)c4=O)cc3F)ccnc2cc1OCCCN1CCC(C)CC1 | – | – | – | – | – | 3.57 | – | – | – | – | – | – | – |
| COc1cc2c(Oc3ccc(NC(=O)c4nc5ccccc5n(-c5ccc(Br)cc5)c4=O)cc3F)ccnc2cc1OCCCN1CCOCC1 | 210 | 1170 | 170 | 320 | 110 | – | – | – | – | – | – | – | – |
